ChEMBL document CHEMBL3044684, “Synthesis and cytotoxic activity of novel benzopyrano[3,2-c]chromene-6,8-dione derivatives” (Med Chem Res, 2011)

Columns and labels:
Format in all cases: functional, cell-based
[1] = Cytotoxicity against Homo sapiens (human) LS180 cells after 96 hr by MTT assay; conditions: LS180, 96 h
[2] = tested on: HeLa; assay: Cytotoxicity against Homo sapiens (human) HeLa cells after 96 hr by MTT assay
[3] = tested on: Raji; assay: Cytotoxicity against Homo sapiens (human) Raji cells after 96 hr by MTT assay
[4] = tested on: MCF7; assay: Cytotoxicity against Homo sapiens (human) MCF7 cells after 96 hr by MTT assay; conditions: MCF7, 96 h

Compound | IC16 [1] | IC50 [1] | IC16 [2] | IC50 [2] | IC16 [3] | IC50 [3] | IC16 [4] | IC50 [4]
O=C1CCCC2=C1C(c1cccc(Br)c1)c1c(c3ccccc3oc1=O)O2 (stereo not drawn) | 35.1 µM | 83.8 µM | 21.9 µM | 61.6 µM | 11.3 µM | 49.3 µM | > 50 µM | > 50 µM
O=C1CCCC2=C1C(c1ccc(Br)cc1)c1c(c3ccccc3oc1=O)O2 (stereo not drawn) | > 100 µM | > 100 µM | > 100 µM | > 100 µM | 22.4 µM | 82.4 µM | 15.7 µM | 49.3 µM
O=C1CCCC2=C1C(c1ccccc1Cl)c1c(c3ccccc3oc1=O)O2 (stereo not drawn) | > 25 µM | > 25 µM | > 25 µM | > 25 µM | > 25 µM | > 25 µM | > 25 µM | > 25 µM
O=C1CCCC2=C1C(c1cccc(Cl)c1)c1c(c3ccccc3oc1=O)O2 (stereo not drawn) | > 50 µM | > 50 µM | > 50 µM | > 50 µM | 23.9 µM | > 50 µM | > 50 µM | > 50 µM
O=C1CCCC2=C1C(c1ccc(Cl)cc1)c1c(c3ccccc3oc1=O)O2 (stereo not drawn) | > 100 µM | > 100 µM | 17.9 µM | 55.8 µM | 59 µM | > 100 µM | 54.7 µM | > 100 µM
COc1ccccc1C1C2=C(CCCC2=O)Oc2c1c(=O)oc1ccccc21 (stereo not drawn) | 52.1 µM | > 100 µM | 37.6 µM | 74.3 µM | 30.3 µM | > 100 µM | > 100 µM | > 100 µM
COc1cccc(C2C3=C(CCCC3=O)Oc3c2c(=O)oc2ccccc32)c1 (stereo not drawn) | 48.9 µM | 99.7 µM | 25.3 µM | 89.9 µM | 13.1 µM | 49.2 µM | 22.2 µM | 58.6 µM
COc1ccc(C2C3=C(CCCC3=O)Oc3c2c(=O)oc2ccccc32)cc1 (stereo not drawn) | 100 µM | > 100 µM | 48.7 µM | 97.9 µM | 33.1 µM | > 100 µM | 35.9 µM | 76.3 µM
Cc1ccccc1C1C2=C(CCCC2=O)Oc2c1c(=O)oc1ccccc21 (stereo not drawn) | 53.8 µM | > 100 µM | 42.9 µM | > 100 µM | 26.4 µM | 79.7 µM | 30.9 µM | > 100 µM
Cc1cccc(C2C3=C(CCCC3=O)Oc3c2c(=O)oc2ccccc32)c1 (stereo not drawn) | 47 µM | > 100 µM | 41.7 µM | > 100 µM | 26.7 µM | 72.7 µM | 42.8 µM | > 100 µM
Cc1ccc(C2C3=C(CCCC3=O)Oc3c2c(=O)oc2ccccc32)cc1 (stereo not drawn) | 74.2 µM | > 100 µM | 38.8 µM | > 100 µM | 8.5 µM | 78.9 µM | 49.2 µM | > 100 µM
O=C1CCCC2=C1C(c1ccccc1[N+](=O)[O-])c1c(c3ccccc3oc1=O)O2 (stereo not drawn) | > 100 µM | > 100 µM | 18.1 µM | > 100 µM | 14.9 µM | 54.8 µM | 28 µM | 59.5 µM
O=C1CCCC2=C1C(c1cccc([N+](=O)[O-])c1)c1c(c3ccccc3oc1=O)O2 (stereo not drawn) | 60.9 µM | > 100 µM | 26.2 µM | 63.1 µM | 55.8 µM | > 100 µM | 23.1 µM | 80.3 µM
O=C1CCCC2=C1C(c1ccc([N+](=O)[O-])cc1)c1c(c3ccccc3oc1=O)O2 (stereo not drawn) | 32.6 µM | 75.7 µM | > 100 µM | > 100 µM | 47.7 µM | > 100 µM | 26 µM | 61.7 µM
O=C1CCCC2=C1C(c1ccccc1Br)c1c(c3ccccc3oc1=O)O2 (stereo not drawn) | > 100 µM | > 100 µM | > 100 µM | > 100 µM | > 100 µM | > 100 µM | > 100 µM | > 100 µM
COc1cccc2c1C(=O)c1c(O)c3c(c(O)c1C2=O)C[C@@](O)(C(=O)CO)C[C@@H]3O[C@H]1C[C@H](N)[C@H](O)[C@H](C)O1 [DOXORUBICIN] | 0.03 µM | 0.13 µM | 0.015 µM | 0.053 µM | 0.012 µM | 0.039 µM | 0.051 µM | 0.211 µM
